Reference: patent publication US10759831B2, “Peptide compound, production method therefor, and use thereof” (iNtRON Biotechnology, Inc., priority 2014, dated 2020)

Tests used:
[1] = tested on: lung cancer cell line A549; assay: SRB cell viability assay, lung cancer cell line A549; format: cell-based; conditions: Homo sapiens; A549, 72 hours; read-out: Cell growth inhibition concentration (IC50)
Method: (§1) Regarding a lung cancer cell line A549 (Korean Cell line Bank), a colon cancer cell line HCT116 (ATCC), a stomach cancer cell line SNU638 (Korean Cell Line Bank), a liver cancer cell line SK-HEP-1 (Korean Cell line Bank), and a breast cancer cell line MDA-MB-231 (Korean Cell line Bank), a sulforhodamine B (SRB) assay which is a method of measuring cell viability was used for measuring apoptosis effects of Asperphenin.
(§2) In detail, 190 μl of a cell suspension at a concentration of 3.5×10^4 cells/ml was inoculated in each well of a 96-well microplate. 0.8 μM, 4 μM, 20 μM, or 100 μM of Asperphenin was added to the cell culture medium, and cultured at a temperature of 37° C. for 72 hours under the condition of 5% CO2. After incubation, 50 μl of 50% (v/v) trichloroacetic acid solution (Sigma Aldrich) was added to each well, and then, incubated at a temperature of 4° C. for 30 minutes, to thereby fix the cells thereto. The fixed cells were washed with water five times, and then, dried in the air.
(§3) Next, 80 μl of a 0.4% (w/v) SRB aqueous solution (Sigma Aldrich) containing 1% (v/v) acetic acid (DUKSAN) was added to each well, incubated at room temperature for 1 hour to stain cells therein, and the stained cells washed with water and dried. The cells were dissolved by adding 200 μl of 10 mM Tris (pH 10.0) (Sigma Aldrich) to each well, and then, the number of living cells was calculated by measuring the absorbance thereof at 515 nm. The concentration of the compound inhibiting cell growth to 50% based on the number of the living cells, i.e., 50% inhibition concentration (IC50) was calculated, and the results are shown in Table 3. Here, as a positive control, etoposide (Sigma Aldrich) was used.

[2] = tested on: colon cancer cell line RKO; assay: Cell cycle analysis by PI flow cytometry; format: cell-based, human
Method: The effects of Asperphenin B on the cell cycle of the colon cancer cell line RKO was confirmed by flow cytometry.
RKO cells (ATCC) were diluted in a medium containing 10% (v/v) FBS to become 1×10^5 cells/ml, and then, inoculated into a 60 mm culture dish. The inoculated cells were cultured for about 24 hours at a temperature of 37° C. under the condition of 5% CO2. The cultured cells were washed with phosphate-buffered saline (PBS) once, and the medium was replaced by a fresh medium. Asperphenin B at the final concentration of 0.625 μM, 1.25 μM, 2.5 μM, 5 μM, or 10 μM was added to the cultured cells, and then, the cells were cultured at a temperature of 37° C. under condition of 5% CO2.
After a certain period of time, cells attached to the culture dish and cells not attached to the medium were collected. The collected cells was washed with PBS once, and then, 1 ml of cold 70% (v/v) ethanol. The cells were incubated at a temperature of 4° C. for about 12 hours to fix the cells. After removing 70% (v/v) ethanol, the fixed cells were washed with PBS once. 500 μl of RNase A (Sigma Aldrich) at a concentration of 50 μg/ml as added to the cells, and the cells were incubated at room temperature for about 30 minutes. Propidium iodide (PI) at a final concentration of 50 μg/ml was added to the cells, and then, the cells were incubated at room temperature for about 30 minutes in a condition where reactants were in the shaded state. The cells stained with PI were subjected to analysis of cell cycle by using a BD FACSCalibur flow cytrometer (manufactured by BD Biosciences). Based on the flow cytometry results, cell ratios at the sub-G1, G0/G1, S, and G2/M phases were calculated. Here, as a negative control, cells to which Asperphenin B was not added was used.
When the RKO cells were incubated for 48 hours in the presence of Asperphenin B, cell ratios (%) dependent on the concentration of Asperphenin B are shown in FIG. 3A and Table 5. When the RKO cells were incubated in the presence of Asperphenin B at the concentrations of 2.5 μM and 5 μM, cell ratios (%) dependent on the incubation time are shown in FIGS. 3B and 3C, and Table 6.

[3] = tested on: stomach cancer cell line SNU638; assay: SRB cell viability assay, stomach cancer cell line SNU638; format: cell-based; conditions: Homo sapiens, SNU-638; SNU638, 72 hours; read-out: Cell growth inhibition concentration (IC50)
Method: as §1, §2, §3

[4] = RKO cells, 2.5 μM, 48 hours, Table 6
[5] = RKO cells, 5 μM, 48 hours, Table 6
[6] = RKO cells, 48 hours, 2.5 μM, Table 5
[7] = RKO cells, 48 hours, 5 μM, Table 5

Compound: CCCCCCCCC[C@@H](O)CC(=O)N[C@@H](CC(N)=O)C(=O)N[C@@H](CCC(N)=O)C(=O)N[C@H](CC(=O)c1cc(C)cc(O)c1C(=O)c1c(O)cccc1O)CC(C)C [Asperphenin B]
- IC50 [1]: 41.8 µM
- Effect on cells in the G2/M phase ([2]; 2.5 μM or 5 μM, until 24 hours of treatment): cell cycle arrest
- Effect after 48 hours of treatment ([2]; RKO cells, 2.5 μM or 5 μM, 48 hours): cell apoptosis was induced
- Cell ratio, G0/G1 phase ([2]; RKO cells, 2.5 μM, 6 hours): 62.16%
- Cell ratio, G2/M phase ([2]; RKO cells, 2.5 μM, 6 hours): 18.28%
- Cell ratio, S phase ([2]; RKO cells, 2.5 μM, 6 hours): 13.82%
- Cell ratio, Sub-G1 phase ([2]; RKO cells, 2.5 μM, 6 hours): 3.77%
- Cell ratio, G0/G1 phase ([2]; RKO cells, 2.5 μM, 12 hours): 56.50%
- Cell ratio, G2/M phase ([2]; RKO cells, 2.5 μM, 12 hours): 22.18%
- Cell ratio, S phase ([2]; RKO cells, 2.5 μM, 12 hours): 15.09%
- Cell ratio, Sub-G1 phase ([2]; RKO cells, 2.5 μM, 12 hours): 3.25%
- Cell ratio, G0/G1 phase ([2]; RKO cells, 2.5 μM, 24 hours): 30.73%
- Cell ratio, G2/M phase ([2]; RKO cells, 2.5 μM, 24 hours): 40.76%
- Cell ratio, S phase ([2]; RKO cells, 2.5 μM, 24 hours): 17.38%
- Cell ratio, Sub-G1 phase ([2]; RKO cells, 2.5 μM, 24 hours): 5.03%
- Cell ratio, G0/G1 phase [2, 4]: 17.80%
- Cell ratio, G2/M phase [2, 4]: 39.31%
- Cell ratio, S phase [2, 4]: 6.55%
- Cell ratio, Sub-G1 phase [2, 4]: 33.38%
- Cell ratio, G0/G1 phase ([2]; RKO cells, 5 μM, 6 hours): 60.66%
- Cell ratio, G2/M phase ([2]; RKO cells, 5 μM, 6 hours): 20.21%
- Cell ratio, S phase ([2]; RKO cells, 5 μM, 6 hours): 13.48%
- Cell ratio, Sub-G1 phase ([2]; RKO cells, 5 μM, 6 hours): 3.19%
- Cell ratio, G0/G1 phase ([2]; RKO cells, 5 μM, 12 hours): 57.60%
- Cell ratio, G2/M phase ([2]; RKO cells, 5 μM, 12 hours): 20.93%
- Cell ratio, S phase ([2]; RKO cells, 5 μM, 12 hours): 14.63%
- Cell ratio, Sub-G1 phase ([2]; RKO cells, 5 μM, 12 hours): 3.80%
- Cell ratio, G0/G1 phase ([2]; RKO cells, 5 μM, 24 hours): 28.35%
- Cell ratio, G2/M phase ([2]; RKO cells, 5 μM, 24 hours): 48.88%
- Cell ratio, S phase ([2]; RKO cells, 5 μM, 24 hours): 14.08%
- Cell ratio, Sub-G1 phase ([2]; RKO cells, 5 μM, 24 hours): 4.86%
- Cell ratio, G0/G1 phase [2, 5]: 20.53%
- Cell ratio, G2/M phase [2, 5]: 23.37%
- Cell ratio, S phase [2, 5]: 5.90%
- Cell ratio, Sub-G1 phase [2, 5]: 48.23%
- Cell ratio, G0/G1 phase ([2]; RKO cells, 48 hours, 0.625 μM): 52.49%
- Cell ratio, G2/m phase ([2]; RKO cells, 48 hours, 0.625 μM): 29.56%
- Cell ratio, S phase ([2]; RKO cells, 48 hours, 0.625 μM): 8.11%
- Cell ratio, Sub-G1 phase ([2]; RKO cells, 48 hours, 0.625 μM): 7.14%
- Cell ratio, G0/G1 phase ([2]; RKO cells, 48 hours, 1.25 μM): 23.02%
- Cell ratio, G2/m phase ([2]; RKO cells, 48 hours, 1.25 μM): 43.94%
- Cell ratio, S phase ([2]; RKO cells, 48 hours, 1.25 μM): 6.39%
- Cell ratio, Sub-G1 phase ([2]; RKO cells, 48 hours, 1.25 μM): 24.18%
- Cell ratio, G0/G1 phase [2, 6]: 17.99%
- Cell ratio, G2/m phase [2, 6]: 34.58%
- Cell ratio, S phase [2, 6]: 6.63%
- Cell ratio, Sub-G1 phase [2, 6]: 38.60%
- Cell ratio, G0/G1 phase [2, 7]: 17.59%
- Cell ratio, G2/m phase [2, 7]: 15.97%
- Cell ratio, S phase [2, 7]: 5.29%
- Cell ratio, Sub-G1 phase [2, 7]: 59.90%
- Cell ratio, G0/G1 phase ([2]; RKO cells, 48 hours, 10 μM): 17.07%
- Cell ratio, G2/m phase ([2]; RKO cells, 48 hours, 10 μM): 8.92%
- Cell ratio, S phase ([2]; RKO cells, 48 hours, 10 μM): 5.46%
- Cell ratio, Sub-G1 phase ([2]; RKO cells, 48 hours, 10 μM): 67.82%
- IC50 [3]: 11.7 µM
